The record followed here is patent publication US20100317528A1, “HERBICIDE CONTAINING BENZOYLPYRAZOLE COMPOUND” (ISHIHARA SANGYO KAISHA, LTD., priority 2006, published 2010).

Assay type in all cases: in vivo
For experiment [1], the system named is wheat (Triticum spp.). As to the kind of experiment: Test Example 2: soil application on the day after sowing, wheat. The note with it: 250 g/ha active ingredient, observed 19th to 28th day after application; for inhibition at 250 g/ha: Triticum, read-out: Growth inhibition rate (%) Wheat. From the text:
(§1) Upland field soil was put into a 1/170,000 hectare pot, and seeds of various plants barnyardgrass (Echinochloa crus-galli L.), crabgrass (Digitaria sanquinalis L.), green foxtail (Setaria viridis L.), redroot pigweed (Amaranthus retroflexus L.), prickly sida (Sida spinosa L.), velvetleaf (Abutilon theophrasti MEDIC.), rice (Oryza sativa L.), wheat (Triticum spp.), corn (Zea mays L.) and soybean (Glycine max Merr.)) were sown. On the day after sowing, wettable powders or emulsifiable concentrates of the compounds of the above formula (I) prepared in accordance with a conventional preparation method, were weighed so that the active ingredients became the prescribed amounts, and diluted with water in an amount corresponding to 500 liter per 1 hectare, followed by soil application with a small sprayer.
(§2) On the 19th to 28th day after the application, the state of growth of the respective plants was visually observed, and the herbicidal effect was evaluated by a growth inhibition rate (%) of from 0 (equivalent to the non-treated area) to 100% (complete kill).

For experiment [2], the system named is corn (Zea mays L.). Put plainly: Test Example 1: foliar treatment, upland pot test, corn. The note with it: 31 g/ha active ingredient, observed 17th to 25th day after application; for inhibition at 31 g/ha: Zea mays, read-out: Growth inhibition rate (%) Corn. From the text:
(§3) Upland field soil was put into a 1/170,000 hectare pot, and seeds of various plants were sown. When the respective plants reached predetermined leaf stage ((1) barnyardgrass (Echinochloa crus-galli L.): 1.0 to 3.0 leaf stage, (2) crabgrass (Digitaria sanguinalis L.): 1.0 to 3.0 leaf stage, (3) green foxtail (Setaria viridis L.): 1.0 to 3.0 leaf stage, (4) redroot pigweed (Amaranthus retroflexus L.): cotyledon stage to 2.0 leaf stage, (5) prickly sida (Sida spinosa L.): cotyledon stage to 1.0 leaf stage, (6) velvetleaf (Abutilon theophrasti MEDIC.): 0.1 to 1.5 leaf stage, (7) rice (Oryza sativa L.): 1.0 to 3.0 leaf stage, (8) wheat (Triticum spp.): 1.7 to 3.4 leaf stage, (9) corn (Zea mays L.): 2.0 to 3.5 leaf stage, (10) soybean (Glycine max Merr.): primary leaf stage to 0.4 leaf stage), wettable powders or emulsifiable concentrates of the compounds of the above formula (I) prepared in accordance with a conventional preparation method, were weighed so that the active ingredients became the prescribed amounts, and diluted with water in an amount corresponding to 500 liter per 1 hectare (containing 0.1 vol % of “KUSARINOH”, manufactured by NIHON NOHYAKU CO., LTD. as an agricultural spreader). The spray solutions thus prepared were applied for foliar treatment by a small sprayer.
(§4) On the 17th to 25th day after application, the state of growth of the respective plants was visually observed, and the herbicidal effect was evaluated by a growth inhibition rate (%) of 0 (equivalent to the non-treated area) to 100% (complete kill).

Experiment [3] relates to velvetleaf (Abutilon theophrasti MEDIC.). Put plainly: Test Example 2: soil application on the day after sowing, velvetleaf. As to conditions: 250 g/ha active ingredient, observed 19th to 28th day after application; for inhibition at 250 g/ha: Abutilon theophrasti, read-out: Growth inhibition rate (%) Velvetleaf.
Source text: as §1, §2

The subject of experiment [4] is crabgrass (Digitaria sanguinalis L.). Put plainly: Test Example 1: foliar treatment, upland pot test, crabgrass. As to conditions: 31 g/ha active ingredient, observed 17th to 25th day after application; for inhibition at 31 g/ha: Digitaria sanguinalis, read-out: Growth inhibition rate (%) Crabgrass.
Source text: as §3, §4

The test system of experiment [5] is wheat (Triticum spp.). Put plainly: Test Example 1: foliar treatment, upland pot test, wheat. As to conditions: 31 g/ha active ingredient, observed 17th to 25th day after application; for inhibition at 31 g/ha: Triticum, read-out: Growth inhibition rate (%) Wheat.
Source text: as §3, §4

Experiment [6] deals with rice (Oryza sativa L.). Put plainly: Test Example 1: foliar treatment, upland pot test, rice. The note with it: 31 g/ha active ingredient, observed 17th to 25th day after application; for inhibition at 31 g/ha: Oryza sativa, read-out: Growth inhibition rate (%) Rice.
Source text: as §3, §4

Experiment [7] has as its system barnyardgrass (Echinochloa crus-galli L.). Put plainly: Test Example 2: soil application on the day after sowing, barnyardgrass. The note with it: 250 g/ha active ingredient, observed 19th to 28th day after application; for inhibition at 250 g/ha: Echinochloa crus-galli, read-out: Growth inhibition rate (%) Barnyardgrass.
Source text: as §1, §2

The subject of experiment [8] is soybean (Glycine max Merr.). Put plainly: Test Example 2: soil application on the day after sowing, soybean. The note with it: 250 g/ha active ingredient, observed 19th to 28th day after application; for inhibition at 250 g/ha: Glycine max, read-out: Growth inhibition rate (%) Soybean.
Source text: as §1, §2

The subject of experiment [9] is rice (Oryza sativa L.). As to the kind of experiment: Test Example 2: soil application on the day after sowing, rice. As to conditions: 250 g/ha active ingredient, observed 19th to 28th day after application; for inhibition at 250 g/ha: Oryza sativa, read-out: Growth inhibition rate (%) Rice.
Source text: as §1, §2

The subject of experiment [10] is velvetleaf (Abutilon theophrasti MEDIC.). As to the kind of experiment: Test Example 1: foliar treatment, upland pot test, velvetleaf. As to conditions: 31 g/ha active ingredient, observed 17th to 25th day after application; for inhibition at 31 g/ha: Abutilon theophrasti, read-out: Growth inhibition rate (%) Velvetleaf.
Source text: as §3, §4

Experiment [11] deals with prickly sida (Sida spinosa L.). Put plainly: Test Example 2: soil application on the day after sowing, prickly sida. The note with it: 250 g/ha active ingredient, observed 19th to 28th day after application; for inhibition at 250 g/ha: Sida spinosa, read-out: Growth inhibition rate (%) Prickly sida.
Source text: as §1, §2

The subject of experiment [12] is crabgrass (Digitaria sanquinalis L.). Put plainly: Test Example 2: soil application on the day after sowing, crabgrass. As to conditions: 250 g/ha active ingredient, observed 19th to 28th day after application; for inhibition at 250 g/ha: Digitaria, read-out: Growth inhibition rate (%) Crabgrass.
Source text: as §1, §2

Experiment [13] has as its system prickly sida (Sida spinosa L.). Put plainly: Test Example 1: foliar treatment, upland pot test, prickly sida. As to conditions: 31 g/ha active ingredient, observed 17th to 25th day after application; for inhibition at 31 g/ha: Sida spinosa, read-out: Growth inhibition rate (%) Prickly sida.
Source text: as §3, §4

Experiment [14] has as its system redroot pigweed (Amaranthus retroflexus L.). Put plainly: Test Example 2: soil application on the day after sowing, redroot pigweed. As to conditions: 250 g/ha active ingredient, observed 19th to 28th day after application; for inhibition at 250 g/ha: Amaranthus retroflexus, read-out: Growth inhibition rate (%) Redroot pigweed.
Source text: as §1, §2

Experiment [15] has the same test system. Put plainly: Test Example 1: foliar treatment, upland pot test, redroot pigweed. As to conditions: 31 g/ha active ingredient, observed 17th to 25th day after application; for inhibition at 31 g/ha: Amaranthus retroflexus, read-out: Growth inhibition rate (%) Redroot pigweed.
Source text: as §3, §4

Experiment [16] concerns barnyardgrass (Echinochloa crus-galli L.). Put plainly: Test Example 1: foliar treatment, upland pot test, barnyardgrass. As to conditions: 31 g/ha active ingredient, observed 17th to 25th day after application; for inhibition at 31 g/ha: Echinochloa crus-galli, read-out: Growth inhibition rate (%) Barnyardgrass.
Source text: as §3, §4

Experiment [17] relates to corn (Zea mays L.). As to the kind of experiment: Test Example 2: soil application on the day after sowing, corn. As to conditions: 250 g/ha active ingredient, observed 19th to 28th day after application; for inhibition at 250 g/ha: Zea mays, read-out: Growth inhibition rate (%) Corn.
Source text: as §1, §2

Experiment [18] concerns green foxtail (Setaria viridis L.). Put plainly: Test Example 2: soil application on the day after sowing, green foxtail. As to conditions: 250 g/ha active ingredient, observed 19th to 28th day after application; for inhibition at 250 g/ha: Setaria viridis, read-out: Growth inhibition rate (%) Green foxtail.
Source text: as §1, §2

The test system is the same in experiment [19]. As to the kind of experiment: Test Example 1: foliar treatment, upland pot test, green foxtail. The note with it: 31 g/ha active ingredient, observed 17th to 25th day after application; for inhibition at 31 g/ha: Setaria viridis, read-out: Growth inhibition rate (%) Green foxtail.
Source text: as §3, §4

In experiment [20] the test system is soybean (Glycine max Merr.). As to the kind of experiment: Test Example 1: foliar treatment, upland pot test, soybean. The note with it: 31 g/ha active ingredient, observed 17th to 25th day after application.
Source text: as §3, §4

The term inhibition denotes the percentage by which the read-out fell short of the control. As for `COC(=O)c1c(S(C)(=O)=O)ccc(C(=O)c2cnn(C)c2O)c1C` [compound 126], the inhibition at 250 g/ha in experiment [1] amounted to 10%; in experiment [3] it was 70%; in experiment [7] it was 90%; in experiment [8], 60%; in [9], 95%; in experiment [11], 70%. The inhibition at 250 g/ha in experiment [12] was 100%; in [14], 100%; in [17] it was 0%; in [18] it was 70%. The inhibition at 31 g/ha was determined as 5% in [2]; 80% in experiment [4]; 0% in experiment [5]; 100% in [6]; 100% in experiment [10]; 90% in experiment [13]. In addition, the inhibition at 31 g/ha is 100% in experiment [15], 95% in experiment [16] and 100% in experiment [19].
With `CCn1ncc(C(=O)c2ccc(S(C)(=O)=O)c(C(=O)OC)c2C)c1O` [compound 127], the inhibition at 250 g/ha in experiment [1] amounted to 10%; in [3] it was 70%; in experiment [7] it was 85%; in experiment [8], 50%; in experiment [9], 70%; in [11] it was 60%. The inhibition at 250 g/ha turned out to be 100% in [12], 100% in [14], 0% in experiment [17] and 100% in experiment [18]. Also, the inhibition at 31 g/ha in [2] came out at 40%; in experiment [4], 90%; in [5] it was 0%; in experiment [6], 90%; in experiment [10], 100%; in experiment [13] it was 80%. The inhibition at 31 g/ha was 100% in experiment [15], 90% in [16] and 90% in [19].
Turning to `CCOc1c(S(C)(=O)=O)ccc(C(=O)c2cnn(C)c2O)c1C` [compound 144], the inhibition at 250 g/ha stood at 0% in experiment [1]; 50% in experiment [3]; 80% in [7]; 0% in experiment [8]; 70% in experiment [9]; 50% in [11]. The inhibition at 250 g/ha came to 100% in experiment [12], 75% in experiment [14], 0% in experiment [17] and 70% in experiment [18]. For the same compound, the inhibition at 31 g/ha amounted to 10% in [2]; 95% in experiment [4]; 20% in experiment [5]; 75% in experiment [6]; 100% in experiment [10]; 100% in experiment [13]. The values for the inhibition at 31 g/ha in experiment [15], in [16] and in [19] were 100%, 98% and 100%, respectively.
In the case of `Cc1c(C(=O)c2cnn(C)c2O)ccc(S(C)(=O)=O)c1OC(C)C` [compound 145], the “Growth inhibition rate (%) Wheat” value in experiment [1] and in [5] was 0% throughout. Moreover, the “Growth inhibition rate (%) Corn” value in experiment [2] and in [17] was 0% throughout. Besides, the figures for the “Growth inhibition rate (%) Velvetleaf” value in experiment [3] and in experiment [10] were 40% and 85%, respectively. Also, the “Growth inhibition rate (%) Crabgrass” value in [4] turned out to be 60%; in experiment [12] it was 90%. Also, the “Growth inhibition rate (%) Soybean” value was 70% in experiment [20] and 0% in experiment [8]. Moreover, the “Growth inhibition rate (%) Rice” value in [6] amounted to 60%; in experiment [9], 0%. Also, the “Growth inhibition rate (%) Barnyardgrass” value is 60% in experiment [7] and 70% in experiment [16]. Moreover, the “Growth inhibition rate (%) Prickly sida” value in [11] is recorded as 60%. Also, the figures for the “Growth inhibition rate (%) Redroot pigweed” value in experiment [14] and in [15] were 60% and 90%, respectively. Moreover, the “Growth inhibition rate (%) Green foxtail” value in experiment [18] stood at 30%; in [19] it was 75%.
For `COC(=O)Cc1c(S(C)(=O)=O)ccc(C(=O)c2cnn(C)c2O)c1C` [compound 156], the “Growth inhibition rate (%) Wheat” value in [1] and in experiment [5] was 0% each time. Besides, the “Growth inhibition rate (%) Corn” value in experiment [2] and in [17] was 0% in each case. In addition, the “Growth inhibition rate (%) Velvetleaf” value in [3] and in [10] was 80% in each case. For the same compound, the “Growth inhibition rate (%) Crabgrass” value in [4] came out at 90%; in experiment [12] it was 95%. Also, the “Growth inhibition rate (%) Rice” value in experiment [6] is recorded as 70%; in experiment [9], 60%. Also, the figures for the “Growth inhibition rate (%) Barnyardgrass” value in [7] and in [16] were 60% and 75%, respectively. Moreover, the “Growth inhibition rate (%) Soybean” value in [8] came to 0%. For the same compound, the “Growth inhibition rate (%) Prickly sida” value in experiment [11] is reported as 80%; in experiment [13] it was 60%. Besides, the “Growth inhibition rate (%) Redroot pigweed” value stood at 100% in [14] and 70% in experiment [15]. Besides, the “Growth inhibition rate (%) Green foxtail” value in experiment [18] stood at 50%; in experiment [19], 70%.
